Results as given in BigSolDB 2.1.

CC[C@H]1OC(=O)[C@H](C)[C@@H](O[C@H]2C[C@@](C)(OC)[C@@H](O)[C@H](C)O2)[C@H](C)[C@@H](O[C@@H]2O[C@H](C)C[C@H](N(C)C)[C@H]2O)[C@](C)(O)C[C@@H](C)CN(C)[C@H](C)[C@@H](O)[C@]1(C)O.O
solubility (mole fraction)
Conditions	278.15 K	283.15 K	288.15 K	293.15 K	298.15 K	303.15 K	308.15 K	313.15 K	318.15 K	323.15 K
in acetone	0.0305	0.0329	0.0353	0.0386	0.0424	0.0464	0.0512	0.0569	0.063	0.0721
in ethanol	0.0299	0.0325	0.0348	0.0371	0.0406	0.0451	0.0491	0.0538	0.0573	0.0588
in ethyl acetate	0.0324	0.0341	0.0366	0.0396	0.0436	0.0521	0.0593	0.0671	0.0743	0.081
in isopropanol	0.0281	0.0303	0.0327	0.0349	0.0388	0.0433	0.0459	0.0507	0.0542	0.0575
in n-butanol	0.0249	0.0254	0.0274	0.0282	0.0301	0.0324	0.0356	0.0386	0.0422	0.0466
